Test results from patent US20260284208A1, “SYSTEM” (Oxford University Innovation Limited, priority 2023, published 2026).

System: library of 8,380 IKZF3 degrons (ZF-eGFP/mCherry reporter) in Jurkat cells
Assay: Pooled library screen (FACS, NGS, limma voom LogFC of positive vs negative read counts)
Type: cell-based, human
Outline: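 Cells were lentivirally transduced at MOI <0.3, and mCherry+ cells were sorted 6 days later. Eight days after sorting, cells were treated with DMSO or thalidomide analog for 18 h at 37 °C. mCherry+GFPlow (DMSO-set gate, DAPI-excluded) and remaining cells were sorted, and degrons were PCR-amplified from gDNA and sequenced (>600× coverage, 3 biological replicates).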

SMILES: O=C1CCC(N2C(=O)c3ccc(N4CCOCC4)cc3C2=O)C(=O)N1 (centres unmarked) [B03]
- B03_logFC (Degron-ID 4175, SEQ ID NO 3945, 46F_47W_49E_50Q_52G_53A_54S_55F_67L): 2.767
- B03_logFC (Degron-ID 4189, SEQ ID NO 3997, 46F_47W_49E_50V_52G_53A_54L_55F_67L): 2.69
- B03_logFC (Degron-ID 4212, SEQ ID NO 4019, 46F_47W_49N_50I_52G_53A_54P_55F_67L): 2.659
- B03_logFC (Degron-ID 4216, SEQ ID NO 3948, 46F_47W_49N_50I_52G_53A_54T_55F_67L): 2.757
- B03_logFC (Degron-ID 4217, SEQ ID NO 3953, 46F_47W_49N_50I_52G_53A_54V_55F_67L): 2.75
- B03_logFC (Degron-ID 4265, SEQ ID NO 3969, 46F_47W_49P_50I_52G_53A_54G_55F_67L): 2.729
- B03_logFC (Degron-ID 4267, SEQ ID NO 4028, 46F_47W_49P_50I_52G_53A_54I_55F_67L): 2.643
- B03_logFC (Degron-ID 4270, SEQ ID NO 3946, 46F_47W_49P_50I_52G_53A_54M_55F_67L): 2.765
- B03_logFC (Degron-ID 4279, SEQ ID NO 3996, 46F_47W_49P_50I_52G_53A_54Y_55F_67L): 2.691
- B03_logFC (Degron-ID 4307, SEQ ID NO 3975, 46F_47W_49P_50V_52G_53A_54I_55F_67L): 2.72
- B03_logFC (Degron-ID 4366, SEQ ID NO 3950, 46F_47Y_49D_50V_52G_53A_54H_55F_67L): 2.757
- B03_logFC (Degron-ID 4368, SEQ ID NO 4018, 46F_47Y_49D_50V_52G_53A_54K_55F_67L): 2.66
- B03_logFC (Degron-ID 4456, SEQ ID NO 4010, 46F_47Y_49N_50I_52G_53A_54T_55F_67L): 2.672
- B03_logFC (Degron-ID 4503, SEQ ID NO 4007, 46F_47Y_49P_50I_52G_53A_54E_55F_67L): 2.675
- B03_logFC (Degron-ID 4510, SEQ ID NO 3967, 46F_47Y_49P_50I_52G_53A_54M_55F_67L): 2.732
- B03_logFC (Degron-ID 4544, SEQ ID NO 4004, 46F_47Y_49P_50V_52G_53A_54F_55F_67L): 2.679
- B03_logFC (Degron-ID 4559, SEQ ID NO 4033, 46F_47Y_49P_50V_52G_53A_54Y_55F_67L): 2.636
- B03_logFC (Degron-ID 6474, SEQ ID NO 3991, 46L_47A_49P_50I_52G_53F_54R_55C_67L): 2.7
- B03_logFC (Degron-ID 6480, SEQ ID NO 4002, 46L_47C_49P_50I_52G_53F_54A_55C_67L): 2.685
- B03_logFC (Degron-ID 6494, SEQ ID NO 4012, 46L_47C_49P_50I_52G_53F_54R_55C_67L): 2.668
- B03_logFC (Degron-ID 6496, SEQ ID NO 3983, 46L_47C_49P_50I_52G_53F_54T_55C_67L): 2.713
- B03_logFC (Degron-ID 6544, SEQ ID NO 3994, 46L_47F_49P_50I_52G_53F_54F_55C_67L): 2.694
- B03_logFC (Degron-ID 6545, SEQ ID NO 3958, 46L_47F_49P_50I_52G_53F_54G_55C_67L): 2.743
- B03_logFC (Degron-ID 6547, SEQ ID NO 3973, 46L_47F_49P_50I_52G_53F_54I_55C_67L): 2.724
- B03_logFC (Degron-ID 6559, SEQ ID NO 3972, 46L_47F_49P_50I_52G_53F_54Y_55C_67L): 2.725
- B03_logFC (Degron-ID 6579, SEQ ID NO 3987, 46L_47G_49P_50I_52G_53F_54Y_55C_67L): 2.704
- B03_logFC (Degron-ID 6581, SEQ ID NO 3985, 46L_47H_49P_50I_52G_53F_54C_55C_67L): 2.71
- B03_logFC (Degron-ID 6593, SEQ ID NO 4008, 46L_47H_49P_50I_52G_53F_54Q_55C_67L): 2.674
- B03_logFC (Degron-ID 6600, SEQ ID NO 3995, 46L_47I_49P_50I_52G_53F_54A_55C_67L): 2.692
- B03_logFC (Degron-ID 6715, SEQ ID NO 3949, 46L_47Q_49P_50I_52G_53F_54S_55C_67L): 2.757
- B03_logFC (Degron-ID 6759, SEQ ID NO 4005, 46L_47S_49P_50I_52G_53F_54Y_55C_67L): 2.677
- B03_logFC (Degron-ID 6761, SEQ ID NO 4009, 46L_47T_49P_50I_52G_53F_54C_55C_67L): 2.672
- B03_logFC (Degron-ID 6793, SEQ ID NO 3980, 46L_47V_49P_50I_52G_53F_54Q_55C_67L): 2.717
- B03_logFC (Degron-ID 6803, SEQ ID NO 4032, 46L_47W_49P_50I_52G_53F_54E_55C_67L): 2.637
- B03_logFC (Degron-ID 6807, SEQ ID NO 3992, 46L_47W_49P_50I_52G_53F_54I_55C_67L): 2.695
- B03_logFC (Degron-ID 7568, SEQ ID NO 3954, 46F_47W_49E_50I_52G_53R_54K_55F_67L): 2.75
- B03_logFC (Degron-ID 7574, SEQ ID NO 3993, 46F_47W_49E_50I_52G_53R_54R_55F_67L): 2.695
- B03_logFC (Degron-ID 7699, SEQ ID NO 3976, 46L_47F_49E_50I_52G_53F_54Y_55C_67L): 2.72
- B03_logFC (Degron-ID 7894, SEQ ID NO 3947, 46L_47S_49E_50I_52G_53F_54R_55C_67L): 2.76
- B03_logFC (Degron-ID 7920, SEQ ID NO 3990, 46L_47V_49E_50I_52G_53F_54A_55C_67L): 2.702
- B03_logFC (Degron-ID 7971, SEQ ID NO 3955, 46L_47Y_49E_50I_52G_53F_54N_55C_67L): 2.749
- B03_logFC (degron 1074 (SEQ ID NO 3496) 46F_47F_49E_50V_52G_53A_54R_55F_67L): 3.71
- B03_logFC (degron 4088 (SEQ ID NO 3502) 46F_47W_49D_50I_52G_53A_54K_55F_67L): 3.696
- B03_logFC (degron 4091 (SEQ ID NO 3497) 46F_47W_49D_50I_52G_53A_54N_55F_67L): 3.708
- B03_logFC (degron 4395 (SEQ ID NO 3500) 46F_47Y_49E_50I_52G_53A_54S_55F_67L): 3.7
- B03_logFC (degron 4420 (SEQ ID NO 3499) 46F_47Y_49E_50V_52G_53A_54A_55F_67L): 3.704
- B03_logFC (degron 4551 (SEQ ID NO 3503) 46F_47Y_49P_50V_52G_53A_54N_55F_67L): 3.692
- B03_logFC (degron 6814 (SEQ ID NO 3498) 46L_47W_49P_50I_52G_53F_54R_55C_67L): 3.704
- B03_logFC (degron 7973 (SEQ ID NO 3495) 46L_47Y_49E_50I_52G_53F_54Q_55C_67L): 3.711
- B03_logFC (degron 7975 (SEQ ID NO 3501) 46L_47Y_49E_50I_52G_53F_54S_55C_67L): 3.698
